Measurements published in article PMC11901902, “Design, Synthesis, and Cytotoxicity Evaluation of Novel Indolin-2-One Based Molecules on Hepatocellular Carcinoma HepG2 Cells as Protein Kinase Inhibitors” (Molecules, 2025).
Read-outs that look alike come from different tables or passages of the source.

Tests used:
[1] = system: HepG-2 cells; test: MTT cytotoxicity assay on HepG-2 cells; format: cell-based, human; settings: Homo sapiens, HepG2; for viability at 1.25 µM: HepG-2, 1.25 µM; for viability at 1.25 µM / viability at 2.5 µM / viability at 5 µM / viability at 10 µM / viability at 20 µM / viability at 40 µM / viability at 80 µM / viability at 160 µM: Table S1; for viability at 2.5 µM: HepG-2, 2.5 µM; for viability at 5 µM: HepG-2, 5 µM; for viability at 10 µM: HepG-2, 10 µM; for viability at 20 µM: HepG-2, 20 µM; for viability at 40 µM: HepG-2, 40 µM; for viability at 80 µM: HepG-2, 80 µM; for viability at 160 µM: HepG-2, 160 µM; for IC50: MTT, 24 h treatment, mean of three experiments ± SEM
Description: (§1) Cytotoxic activity of the synthesized compounds was evaluated against HepG-2 and MCF-7 cancer cell lines using the MTT assay. The tested cell lines were obtained from the American Type Culture Collection (ATCC, […], USA) through the Tissue Culture Unit, The Egyptian Organization for Biological Products and Vaccines (Vacsera, Giza, Egypt). Indirubin, chemicals, and solvents were purchased from Sigma-Aldrich (St. Louis, MO, USA). The cells were grown on RPMI-1640 medium supplemented with 10% inactivated fetal calf serum and 50 µg/mL gentamycin. The cells were maintained at 37 °C in a humidified atmosphere with 5% CO2 and were sub-cultured two to three times per week. For antitumor assays, the tumor cell lines were suspended in the medium at concentration 5 × 10^4 cell/well in Corning® 96-well tissue culture plates (Corning, Corning, NY, USA), then incubated for 24 h. The tested molecules were then added to 96-well plates (six replicates) to achieve six concentrations for each compound. Six vehicle controls with media or 0.5% DMSO were run for each 96-well plate as a control. After incubating for 24 h, the numbers of viable cells were determined by the MTT test. Briefly, the media was removed from the 96 well plate and replaced with 100 µL of fresh culture RPMI 1640 medium without phenol red then 10 µL of the 12 mM MTT stock solution (5 mg of MTT in 1 mL of PBS) to each well including the untreated controls. The 96-well plates were then incubated at 37 °C and 5% CO2 for 4 h. An 85 µL aliquot of the media was removed from the wells, and 50 µL of DMSO was added to each well, mixed thoroughly with the pipette, and incubated at 37 °C for 10 min. Then, the optical density was measured at 590 nm with the microplate reader (SunRise, TECAN, Inc., Morrisville, NC, USA) to determine the number of viable cells, and the percentage of viability was calculated as […], where ODt is the mean optical density of wells treated with the tested sample and ODc is the mean optical density of untreated cells. The relation between surviving cells and drug concentration was plotted to obtain the survival curve of each tumor cell line after treatment with the specified compound. […] Each concentration was repeated four times.

[2] = system: MCF-7 cells; test: MTT cytotoxicity assay on MCF-7 cells; format: cell-based; settings: Homo sapiens, MCF7; for viability at 1.25 µM: MCF-7, 1.25 µM; for viability at 2.5 µM: MCF-7, 2.5 µM; for viability at 5 µM: MCF-7, 5 µM; for viability at 10 µM: MCF-7, 10 µM; for viability at 20 µM: MCF-7, 20 µM; for viability at 40 µM: MCF-7, 40 µM; for viability at 80 µM: MCF-7, 80 µM; for viability at 160 µM: MCF-7, 160 µM
Description: as §1

[3] = MTT, 24 h treatment, mean of three experiments ± SEM, read-out: IC50 (µM) MCF-7
[4] = Table S2, read-out: IC50 (µM) on MCF-7 cell line

| Structure (SMILES) | viability at 1.25 µM [1] [%] | viability at 2.5 µM [1] [%] | viability at 5 µM [1] [%] | viability at 10 µM [1] [%] | viability at 20 µM [1] [%] | viability at 40 µM [1] [%] | viability at 80 µM [1] [%] | viability at 160 µM [1] [%] | IC50 [1] [µM] | viability at 1.25 µM ([2]; Table S2) [%] | viability at 2.5 µM ([2]; Table S2) [%] | viability at 5 µM ([2]; Table S2) [%] | viability at 10 µM ([2]; Table S2) [%] | viability at 20 µM ([2]; Table S2) [%] | viability at 40 µM ([2]; Table S2) [%] | viability at 80 µM ([2]; Table S2) [%] | viability at 160 µM ([2]; Table S2) [%] | IC50 [2, 3] [µM] | IC50 [2, 4] [µM] |
| --- | --- | --- | --- | --- | --- | --- | --- | --- | --- | --- | --- | --- | --- | --- | --- | --- | --- | --- | --- |
| Cc1ccc2c(c1)C(=Nc1ccc(-c3nc4ccccc4c(=O)[nH]3)cc1)C(=O)N2 [Compound 23, 2-[4-(5-Methyl-2-oxo-1,2-dihydro-indol-3-ylideneamino)-phenyl]-3H-quinazolin-4-one] | 81.5 ± 7.5 | 75.3 ± 6.8 | 64.8 ± 6 | 50.2 ± 4.4 | 39.1 ± 3.6 | 28.7 ± 2.6 | 9.5 ± 0.6 | 4.5 ± 0.3 | 38.4 ± 2.71 | 101 ± 7.9 | 91.5 ± 6.5 | 78.8 ± 6.4 | 65.8 ± 5.6 | 40.9 ± 4.6 | 26.9 ± 3 | 12 ± 1.3 | 12 ± 1.6 | 15.3 ± 0.23 | – |
| O=C1Nc2ccc(F)cc2/C1=N/c1ccc(-c2nc3ccccc3c(=O)[nH]2)cc1 [Compound 19, 2-[4-(5-Flouro-2-oxo-1,2-dihydro-indol-3-ylideneamino)-phenyl]-3H-quinazolin-4-one] | 68.4 ± 6.6 | 75 ± 5.3 | 72.3 ± 5.9 | 58.4 ± 3.5 | 46.3 ± 2.4 | 26.6 ± 1.7 | 13.6 ± 0.8 | 7.47 ± 0.2 | 28.4 ± 1.26 | 109 ± 6.6 | 99.3 ± 5.3 | 93.9 ± 4.9 | 81.2 ± 3.9 | 59 ± 2.4 | 36.4 ± 1.7 | 16.4 ± 1.8 | 12 ± 1.2 | 40.8 ± 3.24 | – |
| COc1ccc2c(c1)C(=Nc1ccc3nc[nH]c(=O)c3c1)C(=O)N2 [Compound 13, 6-(5-Methoxy-2-oxo-1,2-dihydro-indol-3-ylideneamino)-3H-quinazolin-4-one] | 88.2 ± 7.4 | 86.5 | 75.9 ± 4.6 | 61.5 ± 3.2 | 40.9 ± 2.7 | 26.6 ± 1.5 | 7.9 ± 0.9 | 3.9 ± 0.3 | 18.9 ± 1.05 | 109 ± 7.3 | 108 ± 7.4 | 99.6 ± 6.5 | 87.6 ± 4.6 | 71.9 ± 3.2 | 67.6 ± 2.7 | 60.8 ± 1.5 | 56.8 ± 0.9 | > 100 | 123 ± 13.2 |
| O=C1Nc2ccc([N+](=O)[O-])cc2C1=Nc1ccc(-c2nc3ccccc3c(=O)[nH]2)cc1 [Compound 22, 2-[4-(5-Nitro-2-oxo-1,2-dihydro-indol-3-ylideneamino)-phenyl]-3H-quinazolin-4-one] | 79.2 ± 7.2 | 73.3 ± 6.5 | 63 ± 5.9 | 48.5 ± 4.1 | 38 ± 3.8 | 26.1 ± 2.3 | 8.22 ± 0.5 | 4.17 ± 0.2 | 35.8 ± 2 | 109 ± 8 | 99.6 ± 7.4 | 95.3 ± 5.9 | 79.1 ± 5.1 | 63.6 ± 3.8 | 49.9 ± 3.3 | 23.5 ± 2.5 | 12.9 ± 1.3 | 14.9 ± 0.66 | – |
| O=C1Nc2ccccc2C1=Nc1ccc(-c2nc3ccccc3c(=O)[nH]2)cc1 [Compound 18, 2-[4-(2-Oxo-1,2-dihydro-indol-3-ylideneamino)-phenyl]-3H-quinazolin-4-one] | 78 ± 7.2 | 75.6 ± 6.8 | 73.5 ± 5.8 | 55.9 ± 4.1 | 40.4 ± 2.9 | 24.9 ± 2.8 | 4.54 ± 0.23 | 1.95 ± 0.19 | 82.4 ± 7.17 | 109 ± 6.2 | 92 ± 6.8 | 94.2 ± 5.8 | 80.8 ± 4.9 | 84.8 ± 2.9 | 83.8 ± 2.8 | 74.3 ± 1.2 | 67.9 ± 0.8 | > 100 | 143 ± 16.2 |
| O=C1Nc2ccc(Br)cc2C1=Nc1ccc(-c2nc3ccccc3c(=O)[nH]2)cc1 [Compound 21, 2-[4-(5-Bromo-2-oxo-1,2-dihydro-indol-3-ylideneamino)-phenyl]-3H-quinazolin-4-one] | 98.3 ± 7.7 | 82.5 ± 6.8 | 77.8 ± 5.5 | 61.4 ± 4.6 | 47 ± 3.4 | 23 ± 1.5 | 9.33 ± 1.1 | 6.14 ± 0.9 | 23.7 ± 0.74 | 103 ± 7.7 | 99.6 ± 6.8 | 91.6 ± 5.5 | 78.2 ± 4.6 | 66.3 ± 3.4 | 33.2 ± 2.5 | 16 ± 1.1 | 10.3 ± 0.9 | 33.6 ± 2.33 | – |
| Cc1ccc2c(c1)C(=Nc1ccc3nc[nH]c(=O)c3c1)C(=O)N2 [Compound 12, 6-(5-Methyl-2-oxo-1,2-dihydro-indol-3-ylideneamino)-3H-quinazolin-4-one] | 96.4 ± 6.9 | 84.9 ± 6.1 | 81.8 ± 5.4 | 69.1 ± 4.1 | 58.9 ± 2.2 | 49.7 ± 1.7 | 36.3 ± 0.5 | 33.9 ± 1.2 | 31.9 ± 2.12 | 104 ± 5.4 | 91.4 ± 4.1 | 80 ± 4.2 | 69.2 ± 2.7 | 58.5 ± 1.5 | 30.1 ± 1.2 | 21.5 ± 1.5 | 9.15 ± 1.2 | 46.2 ± 2.47 | – |
| O=C1Nc2ccccc2C1=Nc1ccc2nc[nH]c(=O)c2c1 [Compound 7, 6-(2-Oxo-1,2-dihydro-indol-3-ylideneamino)-3H-quinazolin-4-one] | 83.4 ± 6.9 | 70.9 ± 6 | 61.9 ± 5.1 | 49.3 ± 2.2 | 35.9 ± 2.1 | 26.5 ± 1.9 | 9.4 ± 0.4 | 7.2 ± 0.2 | 10.8 ± 0.92 | 101 ± 7.2 | 93.7 ± 8.2 | 87.6 ± 6.1 | 78.2 ± 5.3 | 66.3 ± 4 | 53.1 ± 2 | 45.2 ± 1.4 | 36.8 ± 1.2 | 21.9 ± 1.83 | – |
| COc1ccc2c(c1)C(=Nc1ccc(-c3nc4ccccc4c(=O)[nH]3)cc1)C(=O)N2 [Compound 24, 2-[4-(5-Methoxy-2-oxo-1,2-dihydro-indol-3-ylideneamino)-phenyl]-3H-quinazolin-4-one] | 99.4 ± 8.2 | 95.5 ± 7.3 | 88.5 ± 7 | 79.6 ± 6.9 | 62.1 ± 5.7 | 49.5 ± 3.6 | 23.9 ± 2.4 | 10.4 ± 1.1 | 32.7 ± 2.93 | 104 ± 8.4 | 97.9 ± 7.7 | 90.8 ± 7 | 80 ± 6.9 | 61.3 ± 4.7 | 29.6 ± 2.6 | 11.1 ± 1.4 | 5.92 ± 0.5 | 18.5 ± 0.96 | – |
| O=C1Nc2ccc(F)cc2/C1=N/c1ccc2nc[nH]c(=O)c2c1 [Compound 8, 6-(5-Flouro-2-oxo-1,2-dihydro-indol-3-ylideneamino)-3H-quinazolin-4-one] | 88 ± 7.6 | 71.2 ± 6.1 | 62.3 ± 4.3 | 48.2 ± 1.8 | 33.6 ± 0.13 | 17.5 | 15.1 ± 1.4 | 9.3 ± 1.1 | 7.54 ± 0.53 | 104 ± 4.9 | 94.2 ± 4 | 87.9 ± 3.9 | 75.7 ± 3.2 | 57.1 ± 2.4 | 43.9 ± 2 | 29.7 ± 1.4 | 11.5 ± 0.7 | 52.8 ± 3.21 | – |
